Data taken from patent EP0661271B1, “AZEPINE DERIVATIVES, PRODUCTION THEREOF, AND USE THEREOF AS SIGMA-RECEPTOR LIGANDS” (Asahi Kasei Kogyo Kabushiki Kaisha, priority 1992, dated 1994).

Columns and labels:
[1] = target: σ-receptor; assay: Binding activity for σ-receptor, [3H]DTG displacement in rat brain membrane preparation; design: species or system Sprague-Dowley rat; conditions: for Ki: rat whole brain (except cerebella) membrane, [3H]DTG 3 nM, 25°C 60 minutes, compounds tested as hydrochloride, read-out: Sigma [^3H] DTG Ki
[2] = system: apomorphine induced climbing; assay: Suppressive activity on apomorphine induced climbing in mice; format: in vivo; conditions: 30 minutes before apomorphine 2 mg/kg s.c., ICR mice; for Suppression rate (mg/kg, p.o): apomorphine single administered group = 100 %
Protocol: Administering dopamine agonist, apomorphine in mouse resulted various abnormal movings, and especially, a climbing the cage has been known to be correlated with human schizophrenia.
Compounds of the present invention were administered orally or intraperitoneally in ICR mice, male (Charles River Corp.), and after 30 minutes apomorphine 2 mg/kg was administered subcutaneously. Climbing behaviors of 3 minutes after 20-23 minutes of apomorphine administration were observed. Climbing behavior was observed by entering the mice in stainless steel made wire netting cage and measuring a time remaining above the upper part of half part of the cage at observing. A climbing time of apomorphine single administered group is set as 100 % and shortened time by administering the drug is shown in suppression rate.

Row | Molecule | Ki [1] [nM] | other results
1 | CC12CC3CC(C1)CC(CCN1CC4CC[C@](C)(C1)C4(C)C)(C3)C2 [Example 19, (1S)-3-[2-(3-methyl-1-adamantyl)ethyl]-1,8,8-trimethyl-3-azabicyclo [3.2.1] octane] | 0.87 | –
2 | CC1(C)[C@@H]2CC[C@@]1(C)CN(CCc1ccncc1)C2 [Example 48, (1R)-3-[2-(4-pyridyl) ] ethyl-1,8,8-trimethyl-3-azabicyclo [3.2.1] octane] | 15.1 | –
3 | CC1(C)C2CC[C@]1(C)CN(CCC1C3CCCC1CCC3)C2 (stereo partly drawn) [Example 21, (1S)-3-[2-(bicyclo [3.3.1]nonan-9-yl)-1-ethyl]-1,8,8-trimethyl-3-azabicyclo [3.2.1] octane] | 0.88 | Suppression rate (mg/kg, p.o) ([2]; 30 mg/kg p.o.): 54 % (30)
4 | CC1CCC(CCN2CC3CC[C@](C)(C2)C3(C)C)CC1 (stereo partly drawn) [Example 18, (1S)-3-[2-(4-methylcyclohexyl)ethyl]-1,8,8-trimethyl-3-azabicyclo [3.2.1] octane] | 2.23 | –
5 | CC1(C)C2CC[C@@]1(C)CN(CCC1C3CC4CC(C3)CC1C4)C2 (stereo partly drawn) [Example 16, (1R)-3-[2-(2-adamantyl)ethyl]-1,8,8-trimethyl-3-azabicyclo [3.2.1] octane] | 0.41 | Suppression rate (mg/kg, p.o) ([2]; 30 mg/kg p.o.): 79 % (30)
6 | CC1(C)C2CC[C@]1(C)CN(CCC1CCCC1)C2 [Example 3, (1S)-3-(2-cyclopentylethyl)-1,8,8-trimethyl-3-azabicyclo[3.2.1] octane] | 0.53 | –
7 | CC1(C)C2CC[C@]1(C)CN(CCC1C3CC4CC1CC(O)(C4)C3)C2 (stereo partly drawn) [Example 23, (1S)-3-[2-(5-hydroxy-2-adamantyl)ethyl]-1,8,8-trimethyl-3-azabicyclo [3.2.1] octane] | 0.44 | Suppression rate (mg/kg, p.o) ([2]; 10 mg/kg p.o.): 69 % (10)
8 | (1S)-3-[2-(1-norbornyl)ethyl]-1,8,8-trimethyl-3-azabicyclo [3,2,1] octane [Example 2] | 0.39 | –
9 | COC12CC3CC(C1)C(CCN1CC4CC[C@](C)(C1)C4(C)C)C(C3)C2 (stereo partly drawn) [Example 24, (1S)-3-[2-(5-methoxy-2-adamantyl)ethyl]-1,8,8-trimethyl-3-azabicyclo [3.2.1] octane] | 0.67 | Suppression rate (mg/kg, p.o) ([2]; 10 mg/kg p.o.): 78 % (10)
10 | CC1(C)C2CC[C@@]1(C)CN(CCC1CCCCC1)C2 [Example 6, (1R)-3-(2-cyclohexylethyl)-1,8,8-trimethyl-3-azabicyclo[3.2.1] octane] | 0.16 | –
11 | CC1(C)C2CC[C@@]1(C)CN(CCc1cccc3ccccc13)C2 [Example 45, (1R)-3-[2-(1-naphthyl)ethyl]-1,8,8-trimethyl-3-azabicyclo [3.2.1] octane] | 2.22 | –
12 | CC1(C)C2CC[C@@]1(C)CN(CCc1ccccn1)C2 [Example 47, (1R)-3-[2-(2-pyridyl)ethyl]-1,8,8-trimethyl-3-azabicyclo [3.2.1] octane] | 16.1 | –
13 | CC1(C)C2CC[C@]1(C)CN(CCC1CCCCC1)C2 [Example 4, (1S)-3-(2-cyclohexylethyl)-1,8,8-trimethyl-3-azabicyclo[3.2.1] octane] | 0.28 | –
14 | CC1(C)C2CC[C@]1(C)CN(CCC1C3CC4CC(C3)C(O)C1C4)C2 (stereo partly drawn) [Example 27, (1S)-3-[2-(4-hydroxy-2-adamantyl)ethyl]-1,8,8-trimethyl-3-azabicyclo [3.2.1] octane] | 1.6 | –
15 | CC1(C)[C@H]2CC[C@]1(C)CN(CCc1cccc3ccccc13)C2 [Example 49, (1S)-3-[2-(1-naphtyl)ethyl]-1,8,8-trimethyl-3-azabicyclo-[3.2.1] octane] | 9 | –
16 | CC1(C)[C@H]2CC[C@]1(C)CN(CC13CC4CC(CC1C4)C3)C2 [Example 20, (1S)-3-(3-noradamantylmethyl)-1,8,8-trimethyl-3-azabicyclo[3.2.1] octane] | 4.16 | –
17 | CC1(C)C2CC[C@]1(C)CN(CCCC1CCCCC1)C2 [Example 10, (1S)-3-(3-cyclohexylpropyl)-1,8,8-trimethyl-3-azabicyclo[3.2.1] octane] | 0.92 | –
18 | CC1(C)C2CC[C@@]1(C)CN(CCc1ccc3ccccc3c1)C2 [Example 46, (1R)-3-[2-(2-naphthyl)ethyl]-1,8,8-trimethyl-3-azabicyclo [3.2.1] octane] | 8.57 | Suppression (mg/kg, i.p.) ([2]; 10 mg/kg i.p.): 45 % (10)

Row | Molecule | Ki [1] [nM] | other results
19 | CC1(C)C2CC[C@]1(C)CN(CCC1CCCCCC1)C2 [Example 7, (1S)-3-(2-cycloheptylethyl)-1,8,8-trimethyl-3-azabicyclo[3.2.1] octane] | 0.57 | –
20 | CC1(C)C2CC[C@]1(C)CN(CCC1C3CC4CC(C3)CC1C4)C2 (stereo partly drawn) [Example 15, (1S)-3-[2-(2-adamantyl)ethyl]-1,8,8-trimethyl-3-azabicyclo[3.2.1] octane] | 0.32 | Suppression rate (mg/kg, p.o) ([2]; 10 mg/kg p.o.): 78 % (10)
21 | CC1(C)C2CC[C@]1(C)CN(CCC13CC4CC(CC(C4)C1)C3)C2 [Example 1, (1S)-3-[2-(1-adamantyl)ethyl]-1,8,8-trimethyl-3-azabicyclo [3.2.1] octane] | 0.26 | Suppression rate (mg/kg, p.o) ([2]; 30 mg/kg p.o.): 37 % (30)
22 | Cc1ccccc1NC(=N)Nc1ccccc1C [DTG, 1,3-di(2-tolyl) guanidine, reference compound] | – | Kd ([1]; radioligand constant used to calculate Ki, read-out: Kd, affinity of radioactive ligand for receptor): 10.6 nM
23 | CC1(C)C2CC[C@]1(C)CN(CCC1CCCCCCC1)C2 [Example 8, (1S)-3-(2-cyclooctylethyl)-1,8,8-trimethyl-3-azabicyclo[3,2,1] octane] | 0.5 | –
24 | CC1(C)C2CC[C@]1(C)CN(CCc1ccccn1)C2 [Example 51, (1S)-3-[2-(2-pyridyl)ethyl]-1,8,8-trimethyl-3-azabicyclo [3.2.1] octane] | 31.8 | –
25 | CC1(C)C2CC[C@]1(C)CN(CCC1C3CC4CC(C3)C(c3ccccc3)C1C4)C2 (stereo partly drawn) [Example 28, (1S)-3-[2-(4-phenyl-2-adamantyl)ethyl]-1,8,8-trimethyl-3-azabicyclo [3.2.1] octane] | – | Suppression rate (mg/kg, p.o) ([2]; 30 mg/kg p.o.): 74 % (30)
26 | CC1(C)C2CC[C@]1(C)CN(CCc1cccs1)C2 [Example 55, (1S)-3-[2-(2-thienyl)ethyl]-1,8,8-trimethyl-3-azabicyclo [3.2.1] octane] | 7.04 | –
27 | CC1(C)C2CC[C@]1(C)CN(CC1CCCCC1)C2 [Example 11, (1S)-3-cyclohexylmethyl-1,8,8-trimethyl-3-azabicyclo[3.2.1] octane] | 3.63 | –
28 | CC1(C)C2CC[C@]1(C)CN(C1CCCCC1)C2 [Example 13, (1S)-3-cyclohexyl-1,8,8-trimethyl-3-azabicyclo[3.2.1] octane] | 6.37 | –
29 | CC1(C)C2CC[C@]1(C)CN(CCc1ccc3ccccc3c1)C2 [Example 50, (1S)-3-[2-(2-naphthyl)ethyl]-1,8,8-trimethyl-3-azabicyclo [3.2.1] octane] | 28.3 | Suppression (mg/kg, i.p.) ([2]; 1 mg/kg i.p.): 50 % (1)
30 | CN(C)CCCN1c2ccccc2Sc2ccc(Cl)cc21 [Chlorpromazine, reference compound] | – | Suppression (mg/kg, i.p.) ([2]; 1 mg/kg i.p.): 40 % (1)
31 | CC1(C)C2CC[C@]1(C)CN(CCC1C3CC4CC1CC(Cl)(C4)C3)C2 (stereo partly drawn) [Example 25, (1S)-3-[2-(5-chloro-2-adamantyl)ethyl]-1,8,8-trimethyl-3-azabicyclo [3.2.1] octane] | 0.58 | Suppression rate (mg/kg, p.o) ([2]; 30 mg/kg p.o.): 43 % (30)
32 | CC1(C)C2CC[C@@]1(C)CN(CC1CCCCC1)C2 [Example 12, (1R)-3-cyclohexylmethyl-1,8,8-trimethyl-3-azabicyclo[3.2.1] octane] | 2.53 | –
33 | CC1(C)C2CC[C@]1(C)CN(CCc1cccnc1)C2 [Example 52, (1S)-3-[2-(3-pyridyl)ethyl]-1,8,8-trimethyl-3-azabicyclo [3.2.1] octane] | 79.5 | –
34 | CC1(C)C2CC[C@]1(C)CN(CCCCC1CCCCC1)C2 [Example 9, (1S)-3-(4-cyclohexyl-1-butyl)-1,8,8-trimethyl-3-azabicyclo[3.2.1] octane] | 3.72 | –
35 | CC1(C)C2CC[C@]1(C)CN(CCc1ccncc1)C2 [Example 53, (1S)-3-[2-(4-pyridyl)ethyl]-1,8,8-trimethyl-3-azabicyclo [3.2.1] octane] | 21.5 | –
36 | CC1(C)C2CC[C@@]1(C)CN(CCC13CC4CC(CC(C4)C1)C3)C2 [Example 14, (1R)-3-[2-(1-adamantyl)ethyl]-1,8,8-trimethyl-3-azabicyclo[3.2.1] octane] | 0.32 | –
